The text below walks through data of ChEMBL document CHEMBL1134048, “Novel antitumor artemisinin derivatives targeting G1 phase of the cell cycle” (Bioorg Med Chem Lett, 2001).

In one assay the test system is A549. Put plainly: In vitro inhibitory concentration required against human lung A549 carcinoma cells proliferation. The class given is functional, cell-based.
Assay [1] relates to P388. The assay is described as follows: In vitro inhibitory concentration required against murine P388 leukemic cells proliferation. The class given is functional, cell-based. The settings on record: Mus musculus.
In assay [2] the test system is P388. Put plainly: Percent of cells in G1 phase of cell cycle, was determined after 21 hrs of incubation of P388 cells. In kind it is functional, Mus musculus.
Assay [3] relates to P388. The assay is described as follows: Ability to induce apoptosis after 21 hrs of incubation of P388 cells. The settings on record: Mus musculus. In kind it is functional, cell-based.
For assay [4], the system named is P388. Put plainly: Percent of cells in sub-G1 phase (apoptotic cells) of cell cycle was determined after 21 hrs of incubation of P388 cells. The class given is functional, Mus musculus.
The test system of another assay is NIH3T3. Put plainly: In vitro inhibitory concentration required against NIH3T3 cells proliferation. In kind it is functional, cell-based. Conditions: Mus musculus.
The test system of assay [5] is P388. The assay is described as follows: Percent of cells in G1 phase of cell cycle was determined after 21 hrs of incubation of P388 cells. The class given is functional, Mus musculus.

Regarding `C[C@@H]1CCC2[C@@H](C)[C@@H](OC(C#N)c3ccc(Br)cc3)O[C@@H]3O[C@]4(C)CCC1[C@@]23O4` (stereo partly specified), the figures for the IC50 with A549 and with P388 [1] were 42 µM and 24.2 µM, respectively.

As to `C[C@@H]1CCC2[C@@H](C)[C@@H](OCC#N)O[C@@H]3O[C@]4(C)CCC1[C@@]23OO4` (stereo partly specified), the IC50 with A549 was found to be 79.4 µM; in the assay with P388 [1] it was 1.85 µM. In the assay with P388 [2], the G1 is 65%. This compound yielded a Concentration in the assay on P388 [3] of 10000 nM. Also, in the assay on P388 [4], the Apoptosis amounted to 7%.

As for `CC[C@]1(O)C[C@H]2CN(CCc3c([nH]c4ccccc34)[C@@](C(=O)OC)(c3cc4c(cc3OC)N(C=O)[C@H]3[C@@](O)(C(=O)OC)[C@H](OC(C)=O)[C@]5(CC)C=CCN6CC[C@]43[C@@H]65)C2)C1` [VINCRISTINE], the IC50 amounted to 0.018 µM in the assay with A549 and 0.002 µM in the assay on P388 [1].

Turning to `C[C@@H]1CCC2[C@@H](C)[C@@H](O[C@@H](C#N)c3ccc(Br)cc3)O[C@@H]3O[C@]4(C)CCC1[C@@]23OO4` (stereo partly specified), the IC50 in the assay with A549 came to 0.047 µM; with NIH3T3, 3050 µM; in the assay with P388 [1], 0.012 µM. In the assay with P388 [2], this compound came in with a G1 of 62%. This compound also yielded a Concentration in the assay on P388 [3] of 25 nM. The same compound came in with an Apoptosis with P388 [4] of 49%.

As to `C[C@@H]1CCC2[C@@H](C)[C@@H](O[C@@H](C#N)c3ccccc3)O[C@@H]3O[C@]4(C)CCC1[C@@]23OO4` (stereo partly specified), the IC50 in the assay with A549 was 1.23 µM; in the assay with P388 [1], 0.238 µM. The compound further returned a G1 in the assay on P388 [2] of 67%. This compound showed a Concentration with P388 [3] of 500 nM. For the same compound, the Apoptosis with P388 [4] is on record as 53%.

Take `C[C@@H]1CCC2[C@@H](C)[C@@H](O[C@H](C#N)c3ccccc3)O[C@@H]3O[C@]4(C)CCC1[C@@]23OO4` (stereo partly specified): the IC50 in the assay on A549 came to 0.662 µM; in the assay with P388 [1] it was 0.048 µM. This compound displayed a G1 in the assay with P388 [5] of 61%. In addition, in the assay with P388 [3], the Concentration stood at 100 nM. This compound also registered an Apoptosis in the assay with P388 [4] of 45%.

Regarding `C[C@@H]1CCC2[C@@H](C)[C@@H](O[C@H](C#N)c3ccc(Br)cc3)O[C@@H]3O[C@]4(C)CCC1[C@@]23OO4` (stereo partly specified), the values for the IC50 in the assay on A549, in the assay on NIH3T3 and in the assay on P388 [1] were 0.039 µM, 5120 µM and 0.011 µM, respectively. In addition, the G1 in the assay with P388 [2] amounted to 63%. The Concentration in the assay on P388 [3] is 25 nM. The Apoptosis with P388 [4] is 51%.

Broadly, the IC50 is the concentration that inhibits the measured activity by half. A low value points to higher potency.
